Columns and labels:
[1] = treated rats; Roche researchers (Sullivan and Triscari 1976); cited from earlier work
[2] = literature (Sullivan and Gruen 1985); cited from earlier work
[3] = Body weight in the same rat study; assay type: in vivo, rats; conditions: week 6; data not shown
Source text: To test the properties of HCA in various forms under conditions similar to those found in human clinical trials, the inventor arranged for rats to be fed a diet in which 30% of the calories were obtained from fat under standard conditions, with a further approximately 20% of the calories being supplied as simple sugars. Such a dietary combination of fat and simple sugars is noted as promoting a variety of metabolic imbalances and dysfunctions. The rats were intubated twice daily with one of five HCA salts or placebo. On weekends, the HCA was added to the food at an approprate dosage. The amount of HCA in each arm of 8 animals was based on the minimum dosage which had been found effective in the form of the pure trisodium salt of HCA in tests by Hoffmann-La Roche in animals ingesting a 70% glucose diet, i.e., 0.33 mmoles/kg body weight HCA given twice per day. The HCA salts used were these: KCaHCA=a mixed potassium and calcium or double metal HCA salt commercially marketed as being entirely water soluble and of relatively high purity; KHCA=a relatively clean commercial potassium salt of HCA with a good mineral ligand attachment supplying 4467 mg potassium/100 grams of material; KMgHCA=three different dosage levels of an experimental potassium and magnesium salt with special characteristics, but suspected of being relatively unstable when exposed to stomach acid. […]

C-reactive protein = C-reactive protein in serum of rats fed a 30% fat, approximately 20% simple sugar diet; assay type: in vivo; conditions: salt approximately 76 mg/day
Source text: To test the properties of HCA in various forms under conditions similar to those found in human clinical trials, the inventor arranged for rats to be fed a diet in which 30% of the calories were obtained from fat under standard conditions, with a further approximately 20% of the calories being supplied as simple sugars. Such a dietary combination of fat and simple sugars is noted as promoting a variety of metabolic imbalances and dysfunctions. The rats were intubated twice daily with one of five HCA salts or placebo. On weekends, the HCA was added to the food at an approprate dosage. The amount of HCA in each arm of 8 animals was based on the minimum dosage which had been found effective in the form of the pure trisodium salt of HCA in tests by Hoffmann-La Roche in animals ingesting a 70% glucose diet, i.e., 0.33 mmoles/kg body weight HCA given twice per day. […]
Tests were performed for C-reactive protein. […] Optical Density (OD) readings in the test kit used were 1 unit equals 50 picograms/mL. […]

O=C(O)CC(O)(C(=O)O)C(O)C(=O)O (single isomer, unassigned; (-)) [HCA, (−)-Hydroxycitric acid]
plasma levels of glucose, insulin, or free fatty acids relative to controls [1]: no significant differences
crossing of the blood-brain barrier [2]: does not cross the blood-brain barrier

O=C([O-])CC(O)(C(=O)[O-])C(O)C(=O)[O-].[K+].[K+].[K+] (centres unmarked) [KHCA, potassium hydroxycitrate]
body weight versus control [3]: greatest trend differences
absolute CRP readings at week 4 compared with initially (C-reactive protein): lower at week 4 than initially
Δ OD units after 4 wks (C-reactive protein) (C-reactive protein; intubated twice daily, serum, start to week 4, 1 OD unit equals 50 picograms/mL): −155 OD units
